PubChem BioAssay (NCI)
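Grown in 96-well plates, cells were treated for 48 hours with each compound at five concentrations. Insufficient inhibition: endpoint recorded as highest concentration tested. At the TGI there is no net growth.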

Assays:
Assay in all cases: NCI-60 cell line screen, 48 h
ACHN renal = test system: ACHN renal
HOP-92 NSCLC = test system: HOP-92 NSCLC
HT29 colon = test system: HT29 colon
KM12 colon = test system: KM12 colon
M14 melanoma = test system: M14 melanoma
MDA-N = test system: MDA-N
SK-MEL-2 melanoma = test system: SK-MEL-2 melanoma
SN12C renal = test system: SN12C renal
SNB-19 CNS = test system: SNB-19 CNS
SNB-75 CNS = test system: SNB-75 CNS
SW-620 colon = test system: SW-620 colon
K-562 leukemia = test system: K-562 leukemia
U251 CNS = test system: U251 CNS

| SMILES | TGI (ACHN renal) | TGI (HOP-92 NSCLC) | TGI (HT29 colon) | TGI (KM12 colon) | TGI (M14 melanoma) | TGI (MDA-N) | TGI (SK-MEL-2 melanoma) | TGI (SN12C renal) | TGI (SNB-19 CNS) | TGI (SNB-75 CNS) | TGI (SW-620 colon) | TGI (K-562 leukemia) | TGI (U251 CNS) |
| --- | --- | --- | --- | --- | --- | --- | --- | --- | --- | --- | --- | --- | --- |
| CCOC(=O)c1nc2ccc(C(F)(F)F)cc2nc1NCc1cc(OC)c(OC)c(OC)c1 | > 100 µM | > 100 µM | > 100 µM | > 100 µM | > 100 µM | 76 µM | > 100 µM | > 100 µM | > 100 µM | 90.6 µM | > 100 µM | – | – |
| NC(N)=NCCC[C@H](N)C(=O)NCC(=O)N[C@@H](CC(=O)O)c1ncc(NC(=O)C(F)(F)F)o1 | > 25 µM | – | > 25 µM | > 25 µM | > 25 µM | – | > 25 µM | – | – | > 25 µM | > 25 µM | > 25 µM | > 25 µM |
| Cc1ccc(SCC(CF)OC(C)n2cnc3c(=O)[nH]c(N)nc32)cc1 (stereo unspecified) | > 100 µM | > 100 µM | > 100 µM | > 100 µM | > 100 µM | > 100 µM | > 100 µM | > 100 µM | > 100 µM | > 100 µM | > 100 µM | – | > 100 µM |
| O=C(c1ccc(N=Cc2ccccc2O)cc1)c1ccc(N=Cc2ccccc2O)cc1 | > 100 µM | > 100 µM | > 100 µM | > 100 µM | > 100 µM | – | > 100 µM | – | > 100 µM | > 100 µM | > 100 µM | > 100 µM | > 100 µM |
| Oc1ccc(-c2nc(-c3cccnc3)c(-c3ccc(Cl)cc3)[nH]2)cc1 | 27.6 µM | – | 28.4 µM | 25.7 µM | 26.1 µM | 26.3 µM | 32.8 µM | 32.6 µM | 31.2 µM | 19.9 µM | 29.9 µM | > 100 µM | 28.5 µM |
| COC1=C(OC)C(=O)C(Cc2c(C)nc3sc(C)cn23)=C(C)C1=O | 30 µM | – | 40.6 µM | 55.5 µM | 32.8 µM | 32.4 µM | 34.7 µM | 31 µM | 36.5 µM | – | 51.6 µM | 39 µM | 39.7 µM |
| O=C1/C(=C/c2ccc([N+](=O)[O-])cc2)C(=O)N(c2ccccc2)C1c1ccccc1 (stereo unspecified) | > 10 µM | – | > 10 µM | > 10 µM | > 10 µM | > 10 µM | > 10 µM | > 10 µM | > 10 µM | > 10 µM | > 10 µM | – | > 10 µM |
| CC1=NNC(N)=N/C1=C\C(Sc1ccc(Cl)cc1)c1ccc([N+](=O)[O-])cc1 (stereo unspecified) | > 100 µM | > 100 µM | > 100 µM | > 100 µM | > 100 µM | > 100 µM | > 100 µM | > 100 µM | > 100 µM | – | > 100 µM | > 100 µM | > 100 µM |
| CC1NC(=O)CC(c2ccccc2)N(N=O)C1c1ccccc1 (stereo unspecified) | – | > 100 µM | > 100 µM | > 100 µM | – | – | > 85.9 µM | > 100 µM | > 91.3 µM | > 65.2 µM | > 31.6 µM | > 88.5 µM | > 100 µM |
| O=Cc1ccc(OCc2cccc(COc3ccc(/C=N\Nc4ccc([N+](=O)[O-])cc4[N+](=O)[O-])cc3)n2)cc1 | > 100 µM | – | > 100 µM | > 100 µM | > 100 µM | > 100 µM | > 100 µM | > 100 µM | > 100 µM | – | > 100 µM | > 100 µM | > 100 µM |
| O=C(NI1OC(=O)c2ccccc21)c1ccc(Cl)cc1 | > 100 µM | > 100 µM | > 100 µM | > 100 µM | > 100 µM | – | > 100 µM | > 100 µM | – | > 100 µM | > 100 µM | > 100 µM | > 100 µM |
| CCOC(=O)CNc1c(OCc2ccccc2)c(=O)c1=O | > 100 µM | – | > 100 µM | > 100 µM | > 100 µM | > 100 µM | > 100 µM | > 100 µM | > 100 µM | > 100 µM | > 100 µM | > 100 µM | > 100 µM |
| CC(=O)OC(/C=C/c1ccccc1)=C(OC(C)C)/C1=C(\c2ccccc2)SCCCSC1=O | > 100 µM | > 100 µM | > 100 µM | > 100 µM | > 100 µM | – | > 100 µM | – | > 100 µM | > 100 µM | > 100 µM | > 100 µM | > 100 µM |
| C=CCCN1CCc2c([nH]c3ccccc23)C1C(=O)O (stereo unspecified) | > 100 µM | > 100 µM | > 100 µM | > 100 µM | > 100 µM | – | > 100 µM | > 100 µM | > 100 µM | > 100 µM | > 100 µM | > 100 µM | > 100 µM |
| Cc1cc(S(=O)(=O)N=C2N(Cc3ccccc3)CCN2Cc2ccccc2)c(S)cc1Cl | – | > 100 µM | > 100 µM | > 100 µM | > 100 µM | > 100 µM | – | > 100 µM | > 100 µM | > 100 µM | > 100 µM | > 100 µM | > 100 µM |
| N#CC(NC12CC3CC(CC(C3)C1)C2)c1ccccc1C(F)(F)F (stereo unspecified) | > 100 µM | – | > 100 µM | > 100 µM | > 100 µM | – | > 100 µM | > 100 µM | > 100 µM | – | > 100 µM | > 100 µM | – |
| COc1cc(C(=O)N(Cc2cccnc2)C(=S)N(Cc2cccnc2)C(=O)c2cc(OC)c(OC)c(OC)c2)cc(OC)c1OC | > 100 µM | 52.2 µM | > 100 µM | 56.7 µM | > 100 µM | > 100 µM | – | > 100 µM | > 100 µM | 56.7 µM | > 100 µM | > 100 µM | – |
| O=C(O)Cc1cccc2c(=O)c3ccccc3oc12 | > 100 µM | > 100 µM | > 100 µM | > 100 µM | > 100 µM | > 100 µM | 56.5 µM | > 100 µM | > 100 µM | – | > 100 µM | > 100 µM | > 100 µM |
| COC[C@@H](C[C@H]1O[C@@](O)([C@H](O)[C@@H]2C[C@H](OC)[C@@H](O)CC/C=C(C)/C=C/[C@@H](O[C@@H]3O[C@@H](C)[C@H](OC)[C@@H](O)[C@@H]3O)[C@H](C)/C=C(C)/C=C(C)/C=C(\C)C(=O)O2)[C@H](C)[C@@H](O)[C@H]1C)O[C@H]1C[C@](C)(O)[C@@H](O[C@H]2C[C@@H](OC)[C@H](O)[C@@H](C)O2)C(C)O1 (stereo partly specified) | > 100 µM | > 100 µM | > 100 µM | > 100 µM | > 100 µM | > 100 µM | > 100 µM | > 100 µM | > 100 µM | – | > 100 µM | > 46.7 µM | > 100 µM |
